Assay results from US20060228776A1, “PINK-1 promoter” (NEUROLOGIX, INC., priority 2004, published 2006).

What was measured:
[1] = system: PINK1 promoter; assay: PINK1 promoter analysis, Dual Glo Luciferase Assay in transfected HEK293 cells; format: cell-based, human; conditions: promoter alone vs no promoter (pGL2-basic) or SV40 promoter (pGL2-control); HEK293, 48 hrs; p<0.05
Description: HEK293 cells were transfected with PINK1pr2220 and various controls for 48 hrs. Promoter activity was determined using Dual Glo Luciferase Assay system (Promega) and normalized against renilla luciferase.
In FIG. 3(A) the results are represented as the level of firefly luciferase activity driven by the PINK1 promoter normalized against renilla luciferase activity from a second plasmid used to control for transfection variability. Each experiment was replicated in triplicate, and the entire study was replicated on at least two separate occasions. […] Co-transfection with PTEN induced PINK1 promoter activity from 65% to 5 fold in various replicate experiments compared with PINK1 alone (**p<0.05; two-tailed t-test), while a PTEN point-mutant which lacks lipid phosphatase activity (1 mPTEN) had no effect.
Data is the result of triplicate experiments analyzed relative to promoter activity of PINK1pr2220 alone (*p<0.05; two-tailed t-test).
All plasmids were kept at constant amounts and ratios, with empty plasmid replacing constructs not used for individual studies. Data is the result of triplicate experiments analyzed relative to promoter activity of PINK1pr2220 alone (*p<0.05; two-tailed t-test).

[2] = system: human neuroblastoma SH-SY5Y; assay: Cell viability, CellTiter 96 Aqueous One Solution Cell Proliferation Assay; format: cell-based
Description: (§1) SH-SY5Y cells were maintained in Dulbecco's modified medium (DMEM) supplemented with 10% FBS, 100 IU/mL penicillin and […] streptomycin at 37 °C under 5% CO2. Toxins (Sigma) were freshly prepared and added to the cultures and incubated for various lengths of time.
To measure cell viability and apoptosis CellTiter 96 Aqueous One Solution Cell Proliferation Assay (Promega) and propidium iodide (Sigma) were used, respectively.

[3] = system: PTEN; assay: Western blot of p-PTEN/total PTEN ratio in toxin-treated SH-SY5Y cells; format: cell-based, human
Description: as §1
(§2) Blots were incubated with antibodies against PTEN, Phospho-PTEN, and Caspase-3 (Cell Signaling) followed by secondary antibodies and enhanced chemiluminescent detection (Amersham Biosciences).
PTEN and phosphorylated PTEN (p-PTEN) were determined by using western blot analysis. FIG. 6C show PTEN activity was determined by comparing the ratio of p-PTEN/total PTEN. A decrease in p-PTEN/total PTEN is correlated with higher PTEN activity. Results were analyzed by Image J software and p-PTEN/total PTEN results were shown graphically. […] Substantia nigra pars compacta were dissected and harvested for western blot analysis as previously described.

[4] = system: Caspase-3; assay: Western blot of Caspase-3 active metabolite in SH-SY5Y cells; format: cell-based, human; conditions: high (mM) doses of MPP+, 24 hrs
Description: as §1, §2

## PINK1 promoter: 2220bp human DNA sequence upstream of the PINK1 transcriptional start site, driving firefly luciferase
[1]
  PINK1 promoter activity (firefly luciferase normalized against renilla luciferase): significant promoter activity

## NCCc1cc(O)c(O)cc1O [6-OHDA, 6-hydroxydopamine]
[2]; 6-OHDA
  cell viability: reduced cell viability
[3]; n=4
  p-PTEN/total PTEN ratio: lower p-PTEN/total PTEN ratio

## C[n+]1ccc(-c2ccccc2)cc1 [MPP+]
[2]; MPP+ 24 hr treatment
  cell viability: reduced cell viability
[4]
  cleavage of Caspase-3 active metabolites: not cleaved
[3]; 24 hrs, escalating high doses of MPP+ (mM)
  p-PTEN/total PTEN ratio: No change
[3]; low dose MPP+ (100 μM), various time points
  p-PTEN/total PTEN ratio: reduction
